How the values were obtained:
[1] = Electrochemistry: cyclic voltammetry of the Mn(III)/Mn(II) redox couple; assay type: physicochemical; conditions: for Metal-centered redox potential E1/2: Mn(III)/Mn(II), 0.1 M NaCl, 0.05 M phosphate buffer, pH 7.8, ±3 mV
Experimental: Electrochemistry. Measurements were performed on a CH Instruments Model 600 Voltammetric Analyzer (Spasojevic and Batinic-Haberle, Inorg. Chim. Acta. 317:230-242 (2001), Batinic-Haberle et al, J. Biol. Chem. 273:24521-24528 (1998), Batinic-Haberle et al, Inorg. Chem. 38:4011-4022 (1999)). A three-electrode system in a small volume cell (0.5 mL to 3 mL), with a 3 mm-diameter glassy carbon button working electrode (Bioanalytical Systems), plus the Ag/AgCl reference and Pt auxiliary electrodes was used. Argon-purged solutions contained 0.05 M phosphate buffer, pH 7.8, 0.1 M NaCl, and 0.5 mM metalloporphyrin. The scan rates were 0.01-0.5 V/s, typically 0.1 V/s. The potentials were standardized against the potassium ferrocyanide/ferricyanide (Kolthof and Tomsicek, J. Phys. Chem. 39:945 (1935)) and/or against MnTE-2-PyP^5+ (Spasojevic and Batinic-Haberle, Inorg. Chim. Acta. 317:230-242 (2001), Batinic-Haberle et al, J. Biol. Chem. 273:24521-24528 (1998), Batinic-Haberle et al, Inorg. Chem. 38:4011-4022 (1999)).
Electrochemistry. All cyclic voltammograms, ascribed to the Mn(III)/Mn(II) redox couple, are reversible. The E1/2 of di-ortho ethylimidazolylporphyrin, MnTDE-2-ImP^5+ is 118 mV more positive than of ortho ethylpyridylporphyrin, MnTE-2-PyP^5+ (+228 mV vs NHE), as a consequence of charge delocalization. A similar difference of 114 mV was seen between their methoxyethyl analogues. Mn porphyrins bearing N-pyridyl substituents of the same length, MnTnBu-PyP^5+ and MnTMOE-2-PyP^5+, have nearly identical E1/2 of +254 and +251 mV vs NHE, which is 26 and 23 mV higher than that of MnTE-PyP^5+.

[2] = Thin-layer chromatography on silica gel (retention factor Rf, lipophilicity); assay type: physicochemical; conditions: silica gel TLC, KNO3-saturated H2O/H2O/acetonitrile = 1/1/8; for Rf (compound path/solvent path), metal-free porphyrin (in parenthesis): metal-free ligand of the named Mn porphyrin
Experimental: Uv/vis spectra of porphyrin ligands and their Mn complexes were taken on a Shimadzu UV-2501-PC spectrophotometer at 25° C. Thin-layer chromatography of ligands and Mn complexes was done using silica gel plates with KNO3satH2O/H2O/acetonitrile=1/1/8.
Thin-layer chromatography. All new methoxyporphyrins are more lipophilic than MnTE-2-PyP^5+ and MnTDE-2-ImP^5+.

Compound	Metal-centered redox potential E1/2 [1]	Rf (compound path/solvent path), metal-free porphyrin (in parenthesis) [2]	Rf (compound path/solvent path), Mn complex [2]	E1/2 more positive / higher than that of MnTE-2-PyP^5+ ([1]; difference vs MnTE-2-PyP^5+ (+228 mV vs NHE)) [mV]
COCCn1cc[n+](CCOC)c1-c1c2nc(c(-c3n(CCOC)cc[n+]3CCOC)c3ccc([n-]3)c(-c3n(CCOC)cc[n+]3CCOC)c3nc(c(-c4n(CCOC)cc[n+]4CCOC)c4ccc1[n-]4)C=C3)C=C2.[Mn+3] [MnTDMOE-2-ImP^5+, Mn(III) tetrakis 5,10,15,20-tetrakis[N,N′-di(2-methoxyethyl)imidazolium-2-yl]porphyrin]	+365 mV vs NHE	0.24	0.21	–
COCC[n+]1ccccc1-c1c2nc(c(-c3cccc[n+]3CCOC)c3ccc([n-]3)c(-c3cccc[n+]3CCOC)c3nc(c(-c4cccc[n+]4CCOC)c4ccc1[n-]4)C=C3)C=C2.[Mn+3] [MnTMOE-2-PyP^5+, Mn(III) tetrakis 5,10,15,20-tetrakis[N-(2-methoxyethyl)pyridinium-2-yl]porphyrin]	+251 mV vs NHE	0.18	0.16	23
